Test results: patent publication US20240270741A1 (Cogent Biosciences, Inc., priority 2023, published 2024)
Counter-ions that a name gives are not always drawn.

Target: FGFR2 (Homo sapiens, UniProt P21802)
Experiment: FGFR wild type enzyme assay (HTRF KinEASE-TK), FGFR2
Conditions: Enz FGFR2 (nM)
Protocol: Activity against FGFR wild type and mutant enzymes were determined in biochemical assays using purified intracellular domains of the respective isoforms using HTRF KinEASE-TK assay technology from CisBio, now PerkinElmer. (Catalogue number 62TK0PEC). Briefly test compounds were tested in 11 point 1:3 serial dilutions, typical final concentration ranges from 10,000 nM to 0.17 nM. Test compounds were dissolved in DMSO and added to assay plates using acoustic transfer. Enzyme was pre-incubated with test compound for 30 minutes and the assay was initiated by addition of ATP and TK-peptide substrate. After 60 minutes at room temperature the reaction was quenched with detection reagent and incubated for an additional 60 minutes at room temperature. The plates were read using a multimode reader and the emission ratio of 665 nm to 615 nm was determined. This ratio was converted to percent of control (POC). [1-(high control-sample signal)/(high control-low control)]*100. Wells without compound were used to determine high control values and wells without enzyme were used to determine low control values. The POC values were fit using a four-parameter logistic model and the value where the fit curve was equal to 50 POC was reported as the IC50 using the Signals Vitro Vivo software package (PerkinElmer). Final assay conditions were: 50 mM HEPES pH7.5, 10 mM MgCl2, 1 mM EDTA, 0.01% Brij-35, 2 mM MnCl2, 1 mM DTT, and 0.5 uM TK-peptide.

Sequence of FGFR2 (P21802 399-821 limits assumed): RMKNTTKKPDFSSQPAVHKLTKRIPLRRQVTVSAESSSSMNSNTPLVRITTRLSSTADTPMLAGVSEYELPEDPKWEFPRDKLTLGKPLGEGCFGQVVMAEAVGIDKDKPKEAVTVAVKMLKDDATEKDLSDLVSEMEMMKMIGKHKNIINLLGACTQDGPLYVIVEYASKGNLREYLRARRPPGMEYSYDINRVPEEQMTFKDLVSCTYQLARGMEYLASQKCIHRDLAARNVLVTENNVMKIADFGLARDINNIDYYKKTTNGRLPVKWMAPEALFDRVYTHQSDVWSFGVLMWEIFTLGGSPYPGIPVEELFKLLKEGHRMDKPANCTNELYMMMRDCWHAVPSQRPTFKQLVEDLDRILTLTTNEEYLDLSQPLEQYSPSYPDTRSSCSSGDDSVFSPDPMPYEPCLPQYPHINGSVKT

| IC50 (FGFR2 wild type enzyme assay) [nM] | IC50 [nM] | Compound |
| --- | --- | --- |
| 1 | – | Cc1c(-c2cc(Sc3ccc(F)cc3C#N)c3c(C#N)cnn3c2)cnn1C1CCC(C)(C)NC1 (stereo in doubt) [Example 529, 4-(2-cyano-4-fluoro-phenyl)sulfanyl-6-[1-[(3R)-6,6-dimethyl-3-piperidyl]-5-methyl-pyrazol-4-yl]pyrazolo[1,5-a]pyridine-3-carbonitrile] |
| – | 2 | CSc1cc(-c2cnn([C@H]3CCCNC3)c2)cn2ncc(C#N)c12 [Example 50, 4-methylsulfanyl-6-[1-[(3S)-3-piperidyl]pyrazol-4-yl] pyrazolo[1,5-a]pyridine-3-carbonitrile] |
| – | 1 | CCSc1cc(-c2cnn([C@H]3CCCNC3)c2)cn2ncc(C#N)c12 [Example 51, 4-ethylsulfanyl-6-[1-[(3S)-3-piperidyl]pyrazol-4-yl]pyrazolo[1,5-a]pyridine-3-carbonitrile] |
| – | 2 | CC(C)Sc1cc(-c2cnn([C@H]3CCCNC3)c2)cn2ncc(C#N)c12 [Example 52, 4-isopropylsulfanyl-6-[1-[(3S)-3-piperidyl]pyrazol-4-yl]pyrazolo[1,5-a]pyridine-3-carbonitrile] |
| – | 3 | COCCSc1cc(-c2cnn([C@H]3CCCNC3)c2)cn2ncc(C#N)c12 [Example 53, 4-(2-methoxyethylsulfanyl)-6-[1-[(3S)-3-piperidyl]pyrazol-4-yl]pyrazolo[1,5-a]pyridine-3-carbonitrile] |
| – | 1 | N#Cc1cnn2cc(-c3cnn([C@H]4CCCNC4)c3)cc(SC3CCC3)c12 [Example 54, 4-cyclobutylsulfanyl-6-[1-[(3S)-3-piperidyl]pyrazol-4-yl]pyrazolo[1,5-a]pyridine-3-carbonitrile] |
| – | 13 | N#Cc1cnn2cc(-c3cnn([C@H]4CCCNC4)c3)cc(Sc3cnccn3)c12 [Example 55, 6-[1-[(3S)-3-piperidyl]pyrazol-4-yl]-4-pyrazin-2-ylsulfanyl-pyrazolo[1,5-a]pyridine-3-carbonitrile] |
| – | 6 | Cc1c(-c2cc(Sc3ccccn3)c3c(C#N)cnn3c2)cnn1[C@H]1CCCNC1 [Example 56, 6-[5-methyl-1-[(3S)-3-piperidyl]pyrazol-4-yl]-4-(2-pyridylsulfanyl)pyrazolo[1,5-a]pyridine-3-carbonitrile] |
| – | 13 | Cn1ncc2cc(Sc3cc(-c4cnn([C@H]5CCCNC5)c4)cn4ncc(C#N)c34)ccc21 [Example 57, 4-(1-methylindazol-5-yl)sulfanyl-6-[1-[(3S)-3-piperidyl]pyrazol-4-yl]pyrazolo[1,5-a]pyridine-3-carbonitrile] |
| – | 4 | N#Cc1cnn2cc(-c3cnn([C@H]4CCCNC4)c3)cc(SC3CCOC3)c12 (stereo partly drawn) [Example 58, 6-[1-[(3S)-3-piperidyl]pyrazol-4-yl]-4-tetrahydrofuran-3-ylsulfanyl-pyrazolo[1,5-a]pyridine-3-carbonitrile] |
| – | 11 | Cc1ccnc(Sc2cc(-c3cnn([C@H]4CCCNC4)c3)cn3ncc(C#N)c23)c1 [Example 59, 4-[(4-methyl-2-pyridyl)sulfanyl]-6-[1-[(3S)-3-piperidyl]pyrazol-4-yl]pyrazolo[1,5-a]pyridine-3-carbonitrile] |
| – | 7 | N#Cc1cnn2cc(-c3cnn(C4CCNCC4)c3)cc(Sc3ncccn3)c12 [Example 60, 6-(1-(piperidin-4-yl)-1H-pyrazol-4-yl)-4-(pyrimidin-2-ylthio)pyrazolo[1,5-a]pyridine-3-carbonitrile, HCl] |
| – | 9 | Cn1nccc1Sc1cc(-c2cnn(C3CCNCC3)c2)cn2ncc(C#N)c12 [Example 61, 4-((1-methyl-1H-pyrazol-5-yl)thio)-6-(1-(piperidin-4-yl)-1H-pyrazol-4-yl)pyrazolo[1,5-a]pyridine-3-carbonitrile, HCl] |
| – | 0.3 | N#Cc1ccccc1Sc1cc(-c2cnn(C3CCNCC3)c2)cn2ncc(C#N)c12 [Example 62, 4-((2-cyanophenyl)thio)-6-(1-(piperidin-4-yl)-1H-pyrazol-4-yl)pyrazolo[1,5-a]pyridine-3-carbonitrile] |
| – | 1 | N#Cc1cnn2cc(-c3cnn([C@H]4CCCNC4)c3)cc(Sc3ncccc3F)c12 [Example 63, 4-[(3-fluoro-2-pyridyl)sulfanyl]-6-[1-[(3S)-3-piperidyl]pyrazol-4-yl]pyrazolo[1,5-a]pyridine-3-carbonitrile] |
| – | 61 | N#Cc1cnn2cc(-c3cnn([C@H]4CCCNC4)c3)cc(Sc3cc(C(F)(F)F)ccn3)c12 [Example 64, 6-[1-[(3S)-3-piperidyl]pyrazol-4-y1]-4-[[4-(trifluoromethyl)-2-pyridyl]sulfanyl]pyrazolo[1,5-a]pyridine-3-carbonitrile] |
| – | 4 | Cc1cccnc1Sc1cc(-c2cnn(C3CCNCC3)c2)cn2ncc(C#N)c12 [Example 65, 4-((3-methylpyridin-2-yl)thio)-6-(1-(piperidin-4-yl)-1H-pyrazol-4-yl)pyrazolo[1,5-a]pyridine-3-carbonitrile, HCl] |
| – | 12 | Cc1cc(Sc2cc(-c3cnn(C4CCNCC4)c3)cn3ncc(C#N)c23)n(C)n1 [Example 66, 4-((1,3-dimethyl-1H-pyrazol-5-yl)thio)-6-(1-(piperidin-4-yl)-1H-pyrazol-4-yl)pyrazolo[1,5-a]pyridine-3-carbonitrile, HCl] |

| IC50 (FGFR2 wild type enzyme assay) [nM] | IC50 [nM] | Compound |
| --- | --- | --- |
| – | 4 | N#Cc1cnn2cc(-c3cnn([C@H]4CCCNC4)c3)cc(Sc3ncccc3C(F)(F)F)c12 [Example 67] |
| – | 68 | N#Cc1cnn2cc(-c3cnn([C@H]4CCCNC4)c3)cc(Sc3cccc(C(F)(F)F)n3)c12 [Example 68, 6-[1-[(3S)-3-piperidyl]pyrazol-4-yl]-4-[[6-(trifluoromethyl)-2-pyridyl]sulfanyl] pyrazolo[1,5-a]pyridine-3-carbonitrile] |
| – | 8 | N#Cc1cccc(Sc2cc(-c3cnn(C4CCNCC4)c3)cn3ncc(C#N)c23)c1 [Example 69, 4-((3-cyanophenyl)thio)-6-(1-(piperidin-4-yl)-1H-pyrazol-4-yl)pyrazolo[1,5-a]pyridine-3-carbonitrile] |
| – | 3 | Cc1ccc(F)c(Sc2cc(-c3cnn(C4CCNCC4)c3)cn3ncc(C#N)c23)n1 [Example 70, 4-((3-fluoro-6-methylpyridin-2-yl)thio)-6-(1-(piperidin-4-yl)-1H-pyrazol-4-yl)pyrazolo[1,5-a]pyridine-3-carbonitrile, HCl] |
| – | 3 | Cc1ccnc(Sc2cc(-c3cnn(C4CCNCC4)c3)cn3ncc(C#N)c23)c1C [Example 72, 4-((3,4-dimethylpyridin-2-yl)thio)-6-(1-(piperidin-4-yl)-1H-pyrazol-4-yl)pyrazolo[1,5-a]pyridine-3-carbonitrile] |
| – | 4 | N#Cc1cnn2cc(-c3cnn([C@H]4CCNC4)c3)cc(Sc3ccccn3)c12 [Example 73, (S)-4-(pyridin-2-ylthio)-6-(1-(pyrrolidin-3-yl)-1H-pyrazol-4-yl)pyrazolo[1,5-a]pyridine-3-carbonitrile, HCl] |
| – | 6 | N#Cc1cnn2cc(-c3cnn([C@H]4CCCNC4)c3)cc(Sc3ccccc3CO)c12 [Example 74, 4-[2-(hydroxymethyl)phenyl]sulfa-nyl-6-[1-[(3S)-3-piperidyl]pyrazol-4-yl]pyrazolo[1,5-a]pyridine-3-carbonitrile] |
| – | 22 | N#Cc1cnn2cc(-c3cnn([C@H]4CCCNC4)c3)cc(Sc3cccc(C(F)F)n3)c12 [Example 75, 4-[[6-(difluoromethyl)-2-pyridyl]sulfanyl]-6-[1-[(3S)-3-piperidyl]pyrazol-4-yl]pyrazolo[1,5-a]pyridine-3-carbonitrile] |
| – | 237 | N#Cc1cnn2cc(-c3cnn([C@H]4CCCNC4)c3)cc(Sc3ccncn3)c12 [Example 76, 6-[1-[(3S)-3-piperidyl]pyrazol-4-yl]-4-pyrimidin-4-ylsulfanyl-pyrazolo[1,5-a]pyridine-3-carbonitrile] |
| – | 99 | N#Cc1cccc(Sc2cc(-c3cnn([C@H]4CCCNC4)c3)cn3ncc(C#N)c23)n1 [Example 77, 4-[(6-cyano-2-pyridyl)sulfanyl]-6-[1-[(3S)-3-piperidyl]pyrazol-4-yl]pyrazolo[1,5-a]pyridine-3-carbonitrile] |
| – | 27 | Cc1cc(F)cc(Sc2cc(-c3cnn([C@H]4CCCNC4)c3)cn3ncc(C#N)c23)n1 [Example 78, 4-[(4-fluoro-6-methyl-2-pyridyl)sulfanyl]-6-[1-[(3S)-3-piperidyl]pyrazol-4-yl]pyrazolo[1,5-a]pyridine-3-carbonitrile] |
| – | 2 | CC(C)OC[C@@H](C)Sc1cc(-c2cnn([C@H]3CCCNC3)c2)cn2ncc(C#N)c12 [Example 79, 4-[(1R)-2-isopropoxy-1-methyl-ethyl]sulfanyl-6-[1-[(3S)-3-piperidyl]pyrazol-4-yl]pyrazolo[1,5-a]pyridine-3-carbonitrile] |
| – | 8 | Cc1ccncc1Sc1cc(-c2cnn([C@H]3CCCNC3)c2)cn2ncc(C#N)c12 [Example 80, 4-[(4-methyl-3-pyridyl)sulfanyl]-6-[1-[(3S)-3-piperidyl]pyrazol-4-yl]pyrazolo[1,5-a]pyridine-3-carbonitrile] |
| – | 31 | Cc1ncccc1Sc1cc(-c2cnn([C@H]3CCCNC3)c2)cn2ncc(C#N)c12 [Example 81, 4-[(2-methyl-3-pyridyl)sulfanyl]-6-[1-[(3S)-3-piperidyl]pyrazol-4-yl]pyrazolo[1,5-a]pyridine-3-carbonitrile] |
| – | 32 | N#Cc1cnn2cc(-c3cnn([C@H]4CCCNC4)c3)cc(Sc3cccnn3)c12 [Example 82, 6-[1-[(3S)-3-piperidyl]pyrazol-4-yl]-4-pyridazin-3-ylsulfanyl-pyrazolo[1,5-a]pyridine-3-carbonitrile] |
| – | 19 | N#Cc1cnn2cc(-c3cnn([C@H]4CCCNC4)c3)cc(Sc3cncnc3)c12 [Example 83, 6-[1-[(3S)-3-piperidyl]pyrazol-4-yl]-4-pyrimidin-5-ylsulfanyl-pyrazolo[1,5-a] pyridine-3-carbonitrile] |
| – | 11 | Cc1ccnc(C)c1Sc1cc(-c2cnn([C@H]3CCCNC3)c2)cn2ncc(C#N)c12 [Example 84, 4-[(2,4-dimethyl-3-pyridyl)sulfanyl]-6-[1-[(3S)-3-piperidyl]pyrazol-4-yl]pyrazolo[1,5-a]pyridine-3-carbonitrile] |
